SMILES	melting point [°C]
O=C1NCCc2c(-c3ccsc3)[nH]c3cccc1c23	255 to 256
ON=C(c1ccccc1)c1ccc(C(=NO)c2ccc(C(=NO)c3ccccc3)cc2)cc1	224 to 225
Cn1ncc2c(=O)n3c(nc21)SCC3(C)C	188
COc1cc2nc(N3CCN(c4ccnc(Cl)n4)CC3)nc(N)c2cc1OC	266
CNC(=S)N(C)c1ccc(Cl)nc1	87.5 to 88
NC(c1ccc2ccccc2c1)P(O)O (stereo unspecified)	237 to 239
FC(F)(F)C1(c2cc(Cl)cc(Cl)c2)CC(c2ccc(Br)cc2)=NO1 (stereo unspecified)	122 to 124
NC(=O)c1cccc2nccc(O)c12	205 to 207
CCOC(=O)c1c(N)sc(N)c1C(=O)OCC	155 to 158
NCCOc1c(Cl)ccc2c1c1cccc3c1n2C(c1ccccc1)CO3 (stereo unspecified)	127 to 128
COCCOc1cc(N(C)S(=O)(=O)c2ccccn2)c2[nH]c(C3=NCC(CN4CCS(=O)CC4)S3)cc2c1 (stereo unspecified)	182 to 183
O=C1CC(c2ccccc2)Nc2ccccc2N1Cc1ccccc1 (stereo unspecified)	132 to 133
NC(=O)Cc1ccc2c(c1)C(=O)Cc1cccnc1O2	214 to 217
OC(CCCN1CCC(c2ncco2)CC1)c1ccc(F)cc1 (stereo unspecified)	99 to 100
CCCCOc1cc([N+](=O)[O-])c(OCCCC)cc1N=NN1CCOCC1	79 to 81
O=C1c2cc(CCCCOC(=O)C(F)(F)F)ccc2OCc2ccsc21	65.5 to 67
Cn1ncnc1-c1cc(S(C)=O)c2[nH]c(=O)ccc2c1 (stereo unspecified)	224 to 227
Cc1ccc2cccc(OCC(=O)c3ccccc3)c2n1	70 to 71
CCS(=O)(=O)CCc1ccc(C(=O)c2ccc(Cl)cc2)cc1	117 to 118
COc1cc2ncnc(N3CCc4c(C)cccc43)c2cc1OC	174 to 175
CC(=O)c1cccc(OC2SCC(O)C(O)C2O)c1 (stereo unspecified)	166 to 174
CCOC(=NC(=O)c1ccc(Br)cc1)N1Cc2ccccc2-c2ccccc2C1	116 to 117
O=CC(=Cc1cccc(OCc2ccc(Cl)cc2)c1)C(C=O)=Cc1cccc(OCc2ccc(Cl)cc2)c1	193 to 194
N=C(N)c1ccc2cc(OC(=O)CCCCCNC(=O)OCc3ccccc3)ccc2c1	119 to 122

SMILES	melting point [°C]
Cn1ncc2c1CS(=O)c1cn[nH]c1-2 (stereo unspecified)	> 270
CCc1ccc(N)c(C(=O)c2ccccc2)c1	57 to 59
CCOC(=N)C1(O)CCc2ccccc21 (stereo unspecified)	< 20
COC(=O)c1ccnc(NC(=O)C(CSC(C)=O)Cc2ccccc2)c1 (stereo unspecified)	137 to 139
Cc1cc(C)c2c(c1C)OC(=O)C2c1ccc(Br)cc1 (stereo unspecified)	168 to 169
CCOC(=O)c1cn(CCNC(=O)OC(C)(C)C)c(Br)c1-c1cccc(F)c1	108 to 110
CN(C)CCNc1c2c(nc3ccccc13)CCCC2O (stereo unspecified)	135 to 138
FC(F)(F)c1nc(-c2ccc(NCc3ccccc3)cn2)no1	81 to 84
Cc1nc(Cl)c2c3c(oc2n1)CCCC3	42.4 to 43.8
O=C(CCn1c(=O)c(=O)[nH]c2cc(C(F)(F)F)c(-n3cccc3)cc21)NCc1ccccc1	234 to 235
CC1CC2C3CCC4=CC(=O)C=CC4(C)C3=CCC2(C)C1C(=O)CN1CCN(c2cc(NCC(C)(C)C)nc(NC(C)(C)C)n2)CC1 (stereo unspecified)	155 to 160
O=C(O)c1cc(OCc2ccc(Cl)cc2)c(C(=O)c2ccccc2)c([N+](=O)[O-])c1	253 to 254
CCNC(=S)Nc1ccc2ncc(Nc3cc(OC)c(OC)c(OC)c3)cc2n1	237 to 238
COc1c(F)c(Oc2cc(C(F)(F)F)nn2C)nc(Oc2cc(C(F)(F)F)nn2C)c1F	83
CCCOc1c([N+](=O)[O-])cccc1[N+](=O)[O-]	119 to 120
C=CCn1c(=O)n(CCC)c(=O)c2[nH]c(C34CC5CC(CC3C5)C4)nc21	196 to 197
COc1ccc(C(C)(O)Cn2cc[nH]c2=O)cc1OC1CCCC1 (stereo unspecified)	136
Fc1cccc(F)c1C1=NC(c2ccc(OCc3ccc(Cl)cc3Cl)cc2)CO1 (stereo unspecified)	104
Cc1ccc(S(=O)(=O)c2ccc3c(c2)c(CCNC(=O)OC(C)(C)C)cn3C)cc1	144 to 148
O=C(CC(=O)C(F)F)c1ccc(N2CCOCC2)cc1	102 to 103
FC(=C(Cl)Cl)c1ccc(-c2ccccc2)s1	67 to 68.5
CC(=O)Nc1c(C(O)(C(F)(F)F)C(F)(F)F)cc(Cl)c2ccccc12	161 to 162
O=C(O)CN[C@H]1CCN(c2ccc3c(NC(=O)CC4CCCCC4)c(Cl)ccc3n2)C1	257 to 259
Cn1cc(C2=C(c3c4n(c5ccccc35)CCC(CNC(=O)c3ccccc3)C4)C(=O)NC2=O)c2ccccc21 (stereo unspecified)	297 to 303

SMILES	melting point [°C]
OCc1cn(Cc2ccc3cc(OCc4ccccc4)ccc3c2)cc1-c1ccccc1	116 to 117
COc1cc(N(C(=O)COCCOCC(N)=O)c2cc(OC)cc3ccc(C)nc23)c2nc(C)ccc2c1	191 to 193
CN(c1cc(OC(F)(F)F)cc2cc(C(=O)NCCSC(c3ccccc3)(c3ccccc3)c3ccccc3)[nH]c12)S(=O)(=O)c1cccs1	222 to 223
O=C1COc2ccc(C3=Nn4cnnc4SC3c3ccccn3)cc2N1 (stereo unspecified)	216 to 218
Nc1cccc(CN2CCN(C(c3ccccc3)c3ccccc3)CC2)n1	144 to 145
Cn1ccc2cc(C(=O)NN)ccc21	140 to 141
COc1cc(C=CC(=O)OC2C(O)C=C(C)C(=O)CC2(C)C)ccc1O (stereo unspecified)	125 to 127
COc1cn(-c2ccc(-n3cccn3)cc2F)nc(C(=O)N(C)OC)c1=O	187 to 189
CC(CCN(C)c1ccccc1)NCC(O)c1ccc(O)c(C(N)=O)c1 (stereo unspecified)	150 to 152
CCc1ccc2oc(C(=O)Nc3ccc(-c4ccc(S(=O)(=O)NC(C(=O)OC)C(C)C)cc4)cc3)c(C)c2c1OC(C)C (stereo unspecified)	182 to 184
Cc1noc(NS(=O)(=O)c2ccc(Br)cc2)c1Br	146 to 149
C[C@H](C#Cc1ccc(CCc2ccc(F)cc2)s1)N(O)C(N)=O	126 to 128
O=c1[nH]c2ccccc2c(O)c1-c1csc(-c2ccncc2)n1	> 250
O=C1N(CC2CCCO2)c2ccccc2C12COc1cc3c(cc12)C(=NO)CO3 (stereo unspecified)	82 to 100
O=S1(=O)CCN2C=CC=C(c3ccc(Oc4ccc(F)cc4)cc3)C2=N1	266 to 267
CCCn1c(=O)c2c(nc(C=Cc3cc(OC)c(OC)cc3S(=O)(=O)Nc3ccccc3)n2C)n(CCC)c1=O	247 to 249
Cc1ccccc1NC(=O)c1ccc(C(=O)N2Cc3cccn3Cc3ccccc32)cc1	228 to 231
C#Cc1c2c3c(cccc3n1C)C1CC(NC(=O)N(CC)CC)CN(C)C1C2 (stereo unspecified)	126
CCN1C(=O)C(C(=O)Nc2ccc(F)cc2)c2cc3c(cc21)C=CCO3 (stereo unspecified)	212 to 214
Cc1sc2c(c1C)C(c1ccc(Cl)cc1)=N[C@@H](CC(=O)NCCO)c1nnc(C)n1-2	254 to 255
COC(=O)c1ccc(OC)c(C(F)(F)F)c1	77 to 79
C[C@H](NCc1ccc(OCc2ccccc2F)c(Cc2ccccc2F)c1)C(N)=O	161
CS(=O)(=O)c1ccc(-c2cnn(-c3ccc(F)cc3)c(=O)c2-c2cccc(F)c2)cc1	199 to 201
CC(=O)c1cccc2c1CCc1ccccc1C2=O	65 to 68

SMILES	melting point [°C]
CC(C)(C)c1nc(C=C2SC(=S)N(N)C2=O)nc(C(C)(C)C)c1O	194 to 196
COc1cc(COc2nn(-c3ccccc3)cc2C#N)ccc1OCc1nc(-c2ccccc2)oc1C	174 to 175
Cc1cc(C)c(C(=O)P(=O)(CC(C)C)C(=O)c2c(C)cc(C)cc2C)c(C)c1	85 to 86
C[C@H](NS(=O)(=O)c1ccc(-c2c(C#N)c3cc(C(F)(F)F)cnc3n2-c2ccccc2)nc1)C(F)(F)F	186 to 188
COc1cccc2c1OC(C(N)=O)(c1ccncc1CC(=O)OCc1ccccc1)C2 (stereo unspecified)	165 to 166
CNC(=O)OC1c2ccccc2C(=O)N1c1ccc2ccc(Cl)nc2n1 (stereo unspecified)	260
CCCCC(=N)NC(=O)Nc1cccc([N+](=O)[O-])c1	161 to 163
COC(=O)[C@H](c1ccccc1Cl)N1CCc2sc(OC(=O)c3ccc([N+](=O)[O-])cc3)cc2C1	100 to 102
COc1ccc(NC(=O)c2ccc(-c3ccncc3)s2)cc1N1CCN(C)CC1	191 to 194
CC1OC(n2cc(F)c(NC(=O)c3ccoc3)nc2=O)C(O)C1O (stereo unspecified)	173 to 174
O=C(O)C1CCC(c2ccc(OCc3ccc4ccccc4n3)cc2)(c2ccc(OCc3ccc4ccccc4n3)cc2)CC1	194 to 199
Cc1cncn1CC#CCN1CCNC1=O	163 to 167
CCOc1cc(C)c(NCCO)cc1[N+](=O)[O-]	119
COc1nc(NC(=O)Nc2ccccc2OC)nc(N(CCC(=O)O)Cc2ccc(Cl)c(Cl)c2)n1	208 to 210
COC(=O)c1ccc(C2=NOC(c3cc(Cl)cc(Cl)c3)(C(F)(F)F)C2)cc1 (stereo unspecified)	94 to 96
Cc1nn(C)cc1C(=O)NC1=C(c2ccc(Cl)cc2)CCC1	103 to 105
CCN(CC)CCNc1cccc2c1C(=O)c1cccc(NCCN(CC)CC)c1C2=O	158 to 160
CCN(CC)C(=O)COc1ccc(CCCOC(=O)NCC2CC2)c(Oc2ncc(C(F)(F)F)cc2Cl)c1	94 to 94.5
NC1Cc2ccccc2N(C(=O)c2ccc(NC(=O)c3cc(Cl)cc(Cl)c3)cc2)C1 (stereo unspecified)	207 to 210
Nc1nc2ccccc2c2c1ncn2CCCCNC(=O)c1ccnc2ccccc12	214 to 215
CC(C)(C)N=NC(C)(C)SC#N	29 to 31
COc1cc2c(cc1C(F)(F)F)N(C(=O)N(c1cccc(C)c1)c1ncon1)CC2	203 to 204
O=C(O)[C@@H]1[C@H](C(=O)O)N(Cc2ccccc2)C(=O)N1Cc1ccccc1	173
CC(C)Cc1nn(C)c(=O)c2c(SCCCO)n(Cc3cccc4ccccc34)nc12	141 to 142
